Patent US20080076788A1, “SOLID FORMS OF (3'-CHLOROBIPHENYL-4-YL)(1-(PYRIMIDIN-2-YL)PIPERIDIN-4-YL)METHANONE AND METHODS OF THEIR USE” (priority 2006, published 2008)

Columns and labels:
mice = experiment: Learning and memory in mice after administration of the compound; assay type: in vivo; details: administered to mice
[1] = biological target: T1, Na^+-dependent proline transporter (Homo sapiens, UniProt Q99884); details: statement in words, refers to U.S. patent application Ser. Nos. 11/433,057 and 11/433,626; cited from earlier work
T1 sequence (Q99884 1-636): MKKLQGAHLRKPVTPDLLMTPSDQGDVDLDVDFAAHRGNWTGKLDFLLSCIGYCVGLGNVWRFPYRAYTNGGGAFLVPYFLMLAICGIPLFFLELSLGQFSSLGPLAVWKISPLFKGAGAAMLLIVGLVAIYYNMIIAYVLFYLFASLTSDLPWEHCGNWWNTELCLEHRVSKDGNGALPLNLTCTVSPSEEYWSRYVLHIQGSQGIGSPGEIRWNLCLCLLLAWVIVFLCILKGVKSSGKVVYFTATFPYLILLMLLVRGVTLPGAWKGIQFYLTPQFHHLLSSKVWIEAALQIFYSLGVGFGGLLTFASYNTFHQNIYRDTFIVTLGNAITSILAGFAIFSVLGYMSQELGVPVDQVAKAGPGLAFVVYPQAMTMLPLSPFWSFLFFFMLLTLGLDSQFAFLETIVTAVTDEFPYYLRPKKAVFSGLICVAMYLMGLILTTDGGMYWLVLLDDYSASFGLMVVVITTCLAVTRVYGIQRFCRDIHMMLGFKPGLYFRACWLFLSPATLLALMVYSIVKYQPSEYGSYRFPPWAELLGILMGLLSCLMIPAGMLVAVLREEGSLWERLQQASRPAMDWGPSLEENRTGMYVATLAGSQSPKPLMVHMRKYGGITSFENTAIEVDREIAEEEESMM

In the case of `O=C(c1ccc(-c2cccc(Cl)c2)cc1)C1CCN(c2ncccn2)CC1` [(3′-chlorobiphenyl-4-yl)(1-(pyrimidin-2-yl)piperidin-4-yl)methanone], the “effect on learning and memory” value (mice) is given as “increase learning and memory”, the melting point is given as ~ 117 °C and the “inhibition of the Na+-dependent proline transporter” value [1] is given as “inhibitor”.
